From patent US20080318269A1, “Devices and Methods for the Analysis of Biofilm” (priority 2005, published 2008)
Entries after “also recorded” stand apart in the source; their conditions may differ. Like-named read-outs stand apart in the source and are kept apart here.

Tests used:
Candida biofilms = test: Minimum biofilm eradication concentration assay, Candida spp.; assay type: cell-based; conditions: sessile (biofilm) Candida
Experimental: (§1) Biofilm formation and measurement of antimicrobial sensitivity of Candida and Aspergillus biofilms were performed using an assembly of the present invention. The device features a microtliter plate lid with 96 pegs or projections distributed on the lid. Each peg provided the surface for microorganism to adhere, colonize and form a uniform biofilm. The pegs fit precisely into the wells of a standard 96-well microtiter plate. The lid was used in conjunction with a base having special troughs for growing, washing, and incubating fungi. Colonies of Candida sp. were picked from 24 hour cultures on Sabouraud Dextrose agar (SDA) (BBL Microbiological Systems, Cockeysville, Md.) and placed into Mueller-Hinton Broth (MHB) (Difco Laboratories, Detroit Mich.) such that the suspension matched a McFarland standard of 1.0. This suspension was then diluted 1:30 in MHB, and 25 ml were pipetted into the trough chamber of the base. The closed assembly (lid with pegs positioned on the base) was placed on a Hoeffer Red Rocker (VWR, Scientific) set to rock the plates 3.5 cycles per minute in a 37° C. incubator. C. albicans and C. tropicalis were incubated aerobically, while C. glabrata was incubated in 10% CO2. It was determined in preliminary experiments that C. glabrata required 10% CO2 atmosphere for biofilms to form.
(§2) Biofilm susceptibility testing uses the pegged lid of the assembly, now containing biofilms formed after rocking in the tray for 24 hour. Each peg on the lid was gently washed once in […] of phosphate buffered saline solution (PBSS) in a 96-well microtiter plate (Falcon). The pegged lid was then transferred to another 96 well microtiter plate containing 2 fold dilutions antifungal agent in 200 μl of RPMI 1640 (Sigma, St. Louis, Mo.) or RPMI 1640 containing 1% DMSO (see test drug section). After the pegs were exposed to the drugs for 24 hours, the pegged lid was removed and gently rinsed twice in saline. The pegged lid was then placed on a 96 well plate containing RPMI 1640 recovery medium. The pegs were sonicated for 5 minutes (Candida spp.) or 7 minutes (Aspergillus) in an ultrasonicator to dislodge adherent cells into the recovery medium. Aliquots of 20 μl of the recovery medium were spot plated on SDA (Candida spp) or Rose Bengal Agar (A. fumigatus) to obtain the MBEC. The assembly was also used to determine the minimum inhibitory concentration (MIC) and minimum fungicidal concentration (MFC). The turbidity of the wells that contained the antibiotic and planktonic cells which were shed from the biofilm was measured at […] to obtain the MIC. A 20 μl sample from each well was also spot plated onto Sabouraud Dextrose agar (Candida spp) or Rose Bengal Agar (A. fumigatus) to obtain the MFC.
Drugs tested. […]

[1] = tested on: C. tropicalis planktonic cells; test: Planktonic sensitivity (MIC) of C. tropicalis to antifungal agents; assay type: cell-based, Candida tropicalis; conditions: C. tropicalis strain tested
Experimental: Biofilm susceptibility testing uses the pegged lid of the assembly, now containing biofilms formed after rocking in the tray for 24 hour. Each peg on the lid was gently washed once in […] of phosphate buffered saline solution (PBSS) in a 96-well microtiter plate (Falcon). The pegged lid was then transferred to another 96 well microtiter plate containing 2 fold dilutions antifungal agent in 200 μl of RPMI 1640 (Sigma, St. Louis, Mo.) or RPMI 1640 containing 1% DMSO (see test drug section). After the pegs were exposed to the drugs for 24 hours, the pegged lid was removed and gently rinsed twice in saline. The pegged lid was then placed on a 96 well plate containing RPMI 1640 recovery medium. […] The turbidity of the wells that contained the antibiotic and planktonic cells which were shed from the biofilm was measured at […] to obtain the MIC. […]
Minimum Inhibitory Concentrations (MIC) and Minimum Fungicidal Concentrations (MFC) were determined according to the guidelines of the National Committee for Clinical laboratory Standards (NCCLS). […]
(§3) The test wells were then incubated at 37° C. for 24 hours with the antifungal drugs. MICs for Candida were obtained after incubation by reading the turbidity at 650 nm on a microtiter plate reader (Softmax, VWR). […] MFCs were determined for Aspergillus by plating 100 μl from each well onto Rose Bengal Agar, followed by spreading with a sterile glass spreader. […]

[2] = tested on: planktonic cultures of C. albicans; test: Planktonic sensitivity (MIC, MFC) of C. albicans to antifungal agents; assay type: cell-based, Candida albicans
Experimental: as §2
Minimum Inhibitory Concentrations (MIC) and Minimum Fungicidal Concentrations (MFC) were determined according to the guidelines of the National Committee for Clinical laboratory Standards (NCCLS). Briefly, Candida sp. were maintained on polystyrene spheres at −70° C. until plating. […]
as §3

P. aeruginosa biofilm = P. aeruginosa biofilm assay kit, biofilm MBEC read on recovery plate (Example 8); assay type: cell-based, Pseudomonas aeruginosa; conditions: challenge 35° C. for 24 hours; recovery 20 to 24 hours; breakpoint concentrations
[3] = tested on: Pseudomonas aeruginosa (Ps) biofilm; test: MBEC assay, Ps biofilms exposed to antibiotics and combinations (Example 5); assay type: cell-based; conditions: number of the 12 isolates from Cystic Fibrosis patients that are resistant; 24 hours exposure
[4] = tested on: Pseudomonas aeruginosa (Ps) planktonic bacteria; test: MBEC assay, Ps planktonic bacteria exposed to antibiotics and combinations (Example 5); assay type: cell-based; conditions: number of the 12 isolates from Cystic Fibrosis patients that are resistant; 24 hours exposure
[5] = tested on: P. aeruginosa planktonic bacteria shed from the biofilm; test: P. aeruginosa biofilm assay kit, planktonic MIC read on challenge plate (Example 8); assay type: cell-based, Pseudomonas aeruginosa; conditions: challenge 35° C. for 24 hours; breakpoint concentrations
[6] = tested on: invasive pulmonary, sinus and cerebral aspergillosis; conditions: cited from earlier work
[7] = tested on: biofilm cells of C. albicans; test: Minimum biofilm eradication concentration assay, C. albicans; assay type: cell-based, Candida albicans; conditions: 24 hours exposure
Experimental: as §1, with “The closed assembly (lid with pegs positioned on the base) was placed on a Hoeffer Red Rocker (VWR, Scientific) set to rock the plates 3.5 cycles per minute in a 37° C. incubator. C. albicans and C. tropicalis were incubated aerobically, while C. glabrata was incubated in 10% CO2.” left out
Biofilm susceptibility testing uses the pegged lid of the assembly, now containing biofilms formed after rocking in the tray for 24 hour. […] The turbidity of the wells that contained the antibiotic and planktonic cells which were shed from the biofilm was measured at […] to obtain the MIC. […]

[8] = tested on: Staphylococcus aureus planktonic forms; test: Staphylococcus test plate, planktonic sensitivity (Example 9); assay type: cell-based; conditions: figure in the label = antibiotic concentration, breakpoint concentrations
[9] = tested on: Staphylococcus aureus biofilm; test: Staphylococcus test plate, biofilm sensitivity (Example 9); assay type: cell-based; conditions: figure in the label = antibiotic concentration, breakpoint concentrations
[10] = tested on: Staphylococcus aureus (Staph) biofilm; test: MBEC assay, Staph biofilms exposed to antibiotics and combinations (Example 5); assay type: cell-based; conditions: number of the 12 isolates from device associated infections that are resistant; 24 hours exposure
[11] = tested on: Staphylococcus aureus (Staph) planktonic bacteria; test: MBEC assay, Staph planktonic bacteria exposed to antibiotics and combinations (Example 5); assay type: cell-based; conditions: number of the 12 isolates from device associated infections that are resistant; 24 hours exposure
[12] = planktonic cultures of C. albicans, 24 hours

## COC1=CC(=O)C[C@@H](C)[C@]12Oc1c(Cl)c(OC)cc(OC)c1C2=O [Griseofulvin]
Candida biofilms
  effectiveness against Candida growing as a biofilm: ineffective

## OC(Cn1cncn1)(Cn1cncn1)c1ccc(F)cc1F [fluconazole, Fluconazole]
[1]
  classification by MIC criterion (MIC less than or equal to 8 μg/ml = susceptible): susceptible
[2]; C. albicans strain tested, planktonic
  classification by MIC criterion (MIC less than or equal to 8 μg/ml = susceptible): susceptible

## Polymyxin B
Candida biofilms
  effectiveness against Candida growing as a biofilm: ineffective

## C[C@@H]1[C@H](O)[C@@H](C)/C=C/C=C/CC/C=C/C=C/C=C/C=C/C(O[C@H]2O[C@H](C)[C@@H](O)[C@H](N)[C@@H]2O)CC2O[C@](O)(CC(O)C(O)CCC(O)CC(O)CC(O)CC(=O)O[C@H]1C)CC(O)C2C(=O)O (some centres unmarked) [nystatin, Nystatin]
Candida biofilms
  effectiveness against Candida growing as a biofilm: effective; also recorded: most effective

## Colistin [CLO]
P. aeruginosa biofilm
  Number of P. aeruginosa isolates resistant to individual antibiotics and antibiotic combinations, Biofilm: 12
[3]
  Ps resistance to individual antibiotics and antibiotic combinations, Biofilm: 12
[4]
  Ps resistance to individual antibiotics and antibiotic combinations, Planktonic: 2
[5]
  Number of P. aeruginosa isolates resistant to individual antibiotics and antibiotic combinations, Planktonic: 2

## C[C@@H]1[C@H](O)[C@@H](C)/C=C/C=C/C=C/C=C/C=C/C=C/C=C/[C@H](O[C@@H]2O[C@H](C)[C@@H](O)[C@H](N)[C@@H]2O)C[C@@H]2O[C@](O)(C[C@@H](O)C[C@@H](O)[C@H](O)CC[C@@H](O)C[C@@H](O)CC(=O)O[C@H]1C)C[C@H](O)[C@H]2C(=O)O [amphotericin B, Amphotericin B]
[6]; invasive cerebral aspergillosis
  crude mortality rate of treated patients: 99%
[6]; invasive pulmonary aspergillosis
  crude mortality rate of treated patients: 86%
[6]; invasive sinus aspergillosis
  crude mortality rate of treated patients: 66%
Candida biofilms
  effectiveness against Candida growing as a biofilm: most effective
[7]
  average concentration required to kill biofilm cells (MBEC): 12 µg/mL
[2]; [12]
  average MFC: 0.02 µg/mL
  average MIC: 0.09 µg/mL

## gentamicin [GM]
[8]; listed as GM2
  Number of Staphylococcus aureus isolates resistant to individual antibiotics and antibiotic combinations, Planktonic: 4
[8]; listed as GM4
  Number of Staphylococcus aureus isolates resistant to individual antibiotics and antibiotic combinations, Planktonic: 3
P. aeruginosa biofilm
  Number of P. aeruginosa isolates resistant to individual antibiotics and antibiotic combinations, Biofilm: 12
[3]
  Ps resistance to individual antibiotics and antibiotic combinations, Biofilm: 12
[9]; listed as GM2
  Number of Staphylococcus aureus isolates resistant to individual antibiotics and antibiotic combinations, Biofilm: 11
[9]; listed as GM4
  Number of Staphylococcus aureus isolates resistant to individual antibiotics and antibiotic combinations, Biofilm: 10
[10]
  Staph resistance to individual antibiotics and antibiotic combinations, Biofilm: 10
[11]
  Staph resistance to individual antibiotics and antibiotic combinations, Planktonic: 6
[4]
  Ps resistance to individual antibiotics and antibiotic combinations, Planktonic: 8
[5]
  Number of P. aeruginosa isolates resistant to individual antibiotics and antibiotic combinations, Planktonic: 8
